Results on 31 compounds are retold here after patent publication US9434711B2 (Janssen Pharmaceutica, NV, priority 2007, dated 2016).

Like-named read-outs stand apart in the source and are kept apart here.

For this assay, the target named is canine TRPM8 (Canis lupus familiaris, UniProt Q1A7N1). Put plainly: In Vitro Canine TRPM8 Functional Assay (Ca2+ fluorescence, icilin activation). The format is cell-based. The conditions noted are these: for IC50: HEK293 cells stably expressing canine TRPM8, icilin activation, eight-point dose-response, read-out: IC50; for inhibition at 0.2 µM: read-out: % Inh @ 0.2; for inhibition at 0.5 µM: compound at 0.5 μM, read-out: % Inh @ 0.5. The method, boiled down: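 Readout is the intracellular Ca2+ fluorescence change, measured by FLIPR or FDSS, in HEK293 cells stably expressing canine TRPM8. Potency (EC50 or IC50) is fitted from eight concentrations averaged over quadruplicate wells.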

The mark [1] stands for this setting: compound at 0.2 μM, canine TRPM8, icilin activation.
The mark [2] stands for this setting: canine TRPM8, icilin activation.

canine TRPM8, sequence (Q1A7N1 1-1104): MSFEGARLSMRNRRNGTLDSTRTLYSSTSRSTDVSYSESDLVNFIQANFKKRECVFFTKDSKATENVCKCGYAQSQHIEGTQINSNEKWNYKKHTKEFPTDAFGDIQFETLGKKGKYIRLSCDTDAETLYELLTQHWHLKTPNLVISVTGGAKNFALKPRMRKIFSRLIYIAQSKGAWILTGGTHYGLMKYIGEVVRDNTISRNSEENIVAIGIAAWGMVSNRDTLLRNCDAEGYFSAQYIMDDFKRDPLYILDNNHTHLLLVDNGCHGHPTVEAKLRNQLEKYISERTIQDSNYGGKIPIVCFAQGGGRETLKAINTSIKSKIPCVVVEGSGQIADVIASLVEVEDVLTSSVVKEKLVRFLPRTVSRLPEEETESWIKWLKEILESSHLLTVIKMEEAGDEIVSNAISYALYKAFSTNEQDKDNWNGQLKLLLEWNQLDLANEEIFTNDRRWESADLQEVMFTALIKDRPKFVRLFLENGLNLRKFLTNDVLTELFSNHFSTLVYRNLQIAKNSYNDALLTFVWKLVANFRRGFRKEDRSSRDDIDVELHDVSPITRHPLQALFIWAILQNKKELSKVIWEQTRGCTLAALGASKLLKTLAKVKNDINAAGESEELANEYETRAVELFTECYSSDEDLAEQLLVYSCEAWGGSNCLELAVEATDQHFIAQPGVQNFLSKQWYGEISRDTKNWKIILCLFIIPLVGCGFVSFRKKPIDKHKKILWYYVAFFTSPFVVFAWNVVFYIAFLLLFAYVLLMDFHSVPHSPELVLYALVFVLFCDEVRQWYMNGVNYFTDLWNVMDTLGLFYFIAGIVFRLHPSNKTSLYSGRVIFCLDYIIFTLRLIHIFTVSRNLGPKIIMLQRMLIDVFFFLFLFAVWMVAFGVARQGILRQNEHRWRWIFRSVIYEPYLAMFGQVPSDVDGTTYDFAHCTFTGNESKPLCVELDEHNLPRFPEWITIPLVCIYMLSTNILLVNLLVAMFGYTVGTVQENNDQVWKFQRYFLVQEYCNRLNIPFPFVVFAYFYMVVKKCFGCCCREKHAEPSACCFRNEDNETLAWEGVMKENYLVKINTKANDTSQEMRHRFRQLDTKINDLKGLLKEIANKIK

As for `Cc1c(N(Cc2c(F)c(F)c(F)c(F)c2F)S(=O)(=O)c2ccc(C(=O)O)cc2)sc2ccccc12` [Compound 493, N-(3-Methyl-benzo[b]thiophen-2-yl)-N-(2,3,4,5,6-pentafluoro-benzyl)-4-carboxy-benzenesulfonamide], the half-inhibitory concentration (IC50) was determined as 0.8 nM. The inhibition at 0.2 µM under setting [1] was 101%.
Consider `CCCCN(c1sc2ccccc2c1Br)S(=O)(=O)c1ccc(-c2nnn[nH]2)cc1` [Compound 428, N-(3-Bromo-benzo[b]thiophen-2-yl)-N-(butyl)-4-(1H-tetrazol-5-yl)-benzenesulfonamide], for which the IC50 was 10 nM. Also, the inhibition at 0.2 µM under setting [1] came out at 93%.
For the compound `CS(=O)(=O)Nc1ccc(S(=O)(=O)N(Cc2ccc(F)c(C(F)(F)F)c2)c2sc3ccccc3c2Cl)c(O)c1` [Compound 780, N-(3-Chloro-benzo[b]thiophen-2-yl)-N-(4-fluoro-3-trifluoromethyl-benzyl)-2-hydroxy-4-methanesulfonylamino-benzenesulfonamide], the concentration for half-maximal inhibition (IC50) was found to be 145 nM. Also, the inhibition at 0.2 µM under setting [1] was determined as 72%.
As to `CCS(=O)(=O)N(Cc1ccc(F)c(C(F)(F)F)c1)c1cc2ccccc2s1` [Compound 43, N-(Benzo[b]thiophen-2-yl)-N-(4-fluoro-3-trifluoromethyl-benzyl)-ethanesulfonamide], the IC50 turned out to be 25 nM. The inhibition at 0.5 µM under setting [2] stood at 94%.
Take `O=C(O)c1ccc(S(=O)(=O)N(CCCCC(F)(F)F)c2cc3ccccc3s2)c(F)c1` [Compound 685, N-(Benzo[b]thiophen-2-yl)-N-(5,5,5-trifluoro-pentyl)-2-fluoro-4-carboxy-benzenesulfonamide]: the 50% inhibitory concentration (IC50) was 11.9 nM. Under setting [1], the inhibition at 0.2 µM was found to be 102%.
In the same order, the values of `Cc1c(N(Cc2cccc(OC(F)(F)F)c2)S(=O)(=O)CCCO)sc2ccccc12` [Compound 764, N-(3-Methyl-benzo[b]thiophen-2-yl)-N-(3-trifluoromethoxy-benzyl)-3-hydroxy-propanesulfonamide] are 22.1 nM and 101%.
For the compound `COC(C)(C)CCN(c1sc2ccccc2c1Br)S(=O)(=O)c1ccc(C(=O)O)cc1` [Compound 454, N-(3-Bromo-benzo[b]thiophen-2-yl)-N-(3-methoxy-3-methylbutyl)-4-carboxy-benzenesulfonamide], the IC50 was 4 nM. Also, the inhibition at 0.2 µM under setting [1] stood at 101%.
With `Cc1c(N(Cc2ccc(F)c(C(F)(F)F)c2)S(=O)(=O)CC(=O)O)sc2ccccc12` [Compound 792, N-(4-Fluoro-3-trifluoromethyl-benzyl)-N-(3-methyl-benzo[b]thiophen-2-yl)-carboxy-methanesulfonamide], under setting [1], the inhibition at 0.2 µM came to 23%.
`Cc1c(N(Cc2cccc(OC(F)(F)F)c2)S(=O)(=O)CCC(C)(C)O)sc2ccccc12` [Compound 763, N-(3-Methyl-benzo[b]thiophen-2-yl)-N-(3-trifluoromethoxy-benzyl)-3-hydroxy-3-methyl-butane-1-sulfonamide]: the IC50 was determined as 27.7 nM. The inhibition at 0.2 µM under setting [1] is 102%.
Regarding `O=S(=O)(c1ccccc1)N(Cc1ccc(F)c(F)c1)c1sc2ccccc2c1Cl` [Compound 24, N-(3-Chloro-benzo[b]thiophen-2-yl)-N-(3,4-difluoro-benzyl)-benzenesulfonamide], the IC50 was 8.8 nM. In addition, under setting [2], the inhibition at 0.5 µM was determined as 100%.
For `CS(=O)(=O)CS(=O)(=O)N(Cc1ccc(F)c(C(F)(F)F)c1)c1sc2ccccc2c1Br` [Compound 350, N-(3-Bromo-benzo[b]thiophen-2-yl)-N-(4-fluoro-3-trifluoromethyl-benzyl)-C-methanesulfonyl-methanesulfonamide], under setting [1], the inhibition at 0.2 µM is 48%.
For `COC(=O)c1ccccc1S(=O)(=O)N(Cc1ccc(F)c(C(F)(F)F)c1)c1cc2ccccc2s1` [Compound 139, N-(Benzo[b]thiophen-2-yl)-N-(4-fluoro-3-trifluoromethyl-benzyl)-2-carbomethoxy-benzenesulfonamide], the half-inhibitory concentration (IC50) was 62 nM. In addition, under setting [1], the inhibition at 0.2 µM is 91%.
With `CCS(=O)(=O)N(Cc1ccc(F)c(F)c1)c1cc2ccccc2s1` [Compound 35, N-(Benzo[b]thiophen-2-yl)-N-(3,4-difluoro-benzyl)-ethanesulfonamide], the IC50 stood at 60.8 nM. Also, the inhibition at 0.5 µM under setting [2] amounted to 100%.
Turning to `CCS(=O)(=O)N(Cc1ccc(F)c(C(F)(F)F)c1)c1sc2ccccc2c1[C@H](C)O` [Compound 534], the 50% inhibitory concentration (IC50) was 2 nM. Also, under setting [1], the “% Inh @ 0.2 (μM)” value came to 102%.
Turning to `Cc1c(N(CCC(F)(F)F)S(=O)(=O)c2ccc(C(=O)O)cc2F)sc2ccccc12` [Compound 590, N-(3-Methyl-benzo[b]thiophen-2-yl)-N-(3,3,3-trifluoro-propyl)-2-fluoro-4-carboxy-benzenesulfonamide], the IC50 stood at 6.1 nM. The inhibition at 0.2 µM under setting [1] amounted to 101%.
With `CCCCN(c1sc2ccccc2c1OC)S(=O)(=O)c1ccc(C(=O)OC)cc1` [Compound 422, N-(Butyl)-N-(3-methoxy-benzo[b]thiophen-2-yl)-4-carbomethoxybenzenesulfonamide], the IC50 amounted to 18 nM. Besides, under setting [1], the inhibition at 0.2 µM is 97%.
For the compound `CCS(=O)(=O)N(CCOC(C)(C)C)c1sc2ccccc2c1C(C)O` (centres unmarked) [Compound 283, N-(2-tert-Butoxyethyl)-N-(3-(1-hydroxyethyl)benzo[b]thiophen-2-yl)-ethanesulfonamide], the half-inhibitory concentration (IC50) stood at 92 nM. Further, under setting [1], the inhibition at 0.2 µM is 82%.
In the same order, the values of `CCCCN(c1cc2ccccc2s1)S(=O)(=O)c1ccc(N(C)C)cc1` [Compound 444, N-(Benzo[b]thiophen-2-yl)-N-(butyl)-4-dimethylamino-benzenesulfonamide] are 122 nM and 92%.
Take `CC1=C(N(CCCC(F)(F)F)S(=O)(=O)c2ccccc2)S(=O)(=O)c2ccccc21` [Compound 620, N-(3-Methyl-1,1-dioxo-benzo[b]thiophen-2-yl)-N-(4,4,4-trifluoro-butyl)-benzenesulfonamide]: the IC50 was 23.4 nM. Under setting [1], the inhibition at 0.2 µM came out at 101%.
For `Cc1c(N(CCCCC(F)(F)F)S(=O)(=O)c2cccc3nccnc23)sc2ccccc12` [Compound 721, N-(3-Methyl-benzo[b]thiophen-2-yl)-N-(5,5,5-trifluoro-pentyl)-quinoxalin-5-yl-sulfonamide], the half-maximal inhibitory concentration (IC50) was found to be 4.2 nM. The inhibition at 0.2 µM under setting [1] was determined as 102%.
Consider `CCS(=O)(=O)N(CC(F)F)c1sc2ccccc2c1Br` [Compound 263, N-(3-Bromo-benzo[b]thiophen-2-yl)-N-(2,2-difluoro-ethyl)-ethanesulfonamide], for which the IC50 was 203 nM. Besides, the inhibition at 0.2 µM under setting [1] worked out at 52%.
In the case of `O=C(O)c1ccc(S(=O)(=O)N(Cc2ccc(OC(F)(F)F)cc2)c2sc3ccccc3c2C2CC2)cc1` [Compound 755, N-(3-Cyclopropyl-benzo[b]thiophen-2-yl)-N-(4-trifluoromethoxyl-benzyl)-4-carboxy-benzenesulfonamide], the half-maximal inhibitory concentration (IC50) was 0.9 nM. For the same compound, under setting [1], the inhibition at 0.2 µM turned out to be 101%.
With `Cc1c(N(Cc2ccc(F)c(F)c2)S(=O)(=O)c2cccc3cnccc23)sc2ccccc12` [Compound 27, N-(3,4-Difluoro-benzyl)-N-(3-methyl-benzo[b]thiophen-2-yl)-isoquinoline-5-sulfonamide], the concentration for half-maximal inhibition (IC50) came to 20 nM. Also, under setting [2], the inhibition at 0.5 µM worked out at 99%.
For the compound `COc1cccc2cc(N(Cc3ccc(F)c(F)c3)S(=O)(=O)c3ccccc3)sc12` [Compound 142, N-(3,4-Difluoro-benzyl)-N-(7-methoxy-benzo[b]thiophen-2-yl)-benzenesulfonamide], under setting [2], the inhibition at 0.5 µM turned out to be 60%.
On to `Cc1c(N(Cc2ccc(F)c(C(F)(F)F)c2)S(=O)(=O)c2ccc(C(=O)O)cc2F)sc2ccccc12` [Compound 592, N-(3-Methyl-benzo[b]thiophen-2-yl)-N-(4-fluoro-3-trifluoromethyl-benzyl)-2-fluoro-4-carboxy-benzenesulfonamide], for which the IC50 came to 1.8 nM. Moreover, the inhibition at 0.2 µM under setting [1] is 101%.
`Cc1c(N(CC2CC2)S(=O)(=O)c2ccccc2)sc2ccccc12` [Compound 97, N-(Cyclopropylmethyl)-N-(3-methyl-benzo[b]thiophen-2-yl)-benzenesulfonamide]: the half-inhibitory concentration (IC50) is 14 nM. The inhibition at 0.2 µM under setting [1] is 96%.
In the case of `CCS(=O)(=O)N(Cc1ccc(F)c(OC)c1)c1sc2ccccc2c1C(C)(C)O` [Compound 838, N-(4-Fluoro-3-methoxybenzyl)-N-[3-(1-hydroxy-1-methyl-ethyl)-benzo[b]thiophen-2-yl]-ethanesulfonamide], for the setting “0.2 μM compound, HEK293 cells stably expressing canine TRPM8, icilin activation”, the inhibition at 0.2 µM amounted to 101%.
In the case of `O=C(Nc1ccc(S(=O)(=O)N(CCC2CC2)c2sc3ccccc3c2Cl)cc1)C(F)(F)F` [Cpd 694, N-(3-Chloro-benzo[b]thiophen-2-yl)-N-(2-cyclopropyl-ethyl)-4-trifluoroacetamido-benzenesulfonamide], under setting [1], the inhibition at 0.2 µM was found to be 42%.
The same measure, in the same setting: next, `Cc1c(N(CCC2CC2)S(=O)(=O)c2ccc(C(=O)N3CCN(C)CC3)cc2)sc2ccccc12` [Compound 777, N-(2-Cyclopropyl-ethyl)-N-(3-methyl-benzo[b]thiophen-2-yl)-4-(4-methyl-piperazine-1-carbonyl)-benzenesulfonamide]: 56%.
For `O=S1(=O)C(N(CCC2CC2)S(=O)(=O)c2ccccc2)=C(Br)c2ccccc21` [Compound 577, N-(3-Bromo-1,1-dioxo-1H-benzo[b]thiophen-2-yl)-N-(2-cyclopropylethyl)-benzenesulfonamide], the IC50 turned out to be 7.8 nM. The inhibition at 0.2 µM under setting [1] worked out at 101%.
As for `CCCCN(c1sc2ccccc2c1Br)S(=O)(=O)c1ccc(-c2noc(=O)[nH]2)cc1` [Compound 443, N-(3-Bromo-benzo[b]thiophen-2-yl)-N-(butyl)-4-(5-oxo-4,5-dihydro-[1,2,4]oxadiazol-3-yl)-benzenesulfonamide], the IC50 was determined as 14 nM. Besides, the inhibition at 0.2 µM under setting [1] worked out at 94%.
